In BindingDB's records for doi:10.1021/jm9806650 (Institute of Chemical Technology, 1999):

Test: The compound was tested in vitro for inhibition of HIV-1 replication

SMILES	IC50
COc1ccc(-c2c3c4cc(OC)c(O)cc4oc(=O)c3n3ccc4cc(O)c(OC)cc4c23)cc1O [3,10-Dihydroxy-13-(3-hydroxy-4-methoxy-phenyl)-2,11-dimethoxy-5-oxa-6b-aza-dibenzo[a,i]fluoren-6-one]	1 µM
COc1ccc(-c2c3n(c4c(=O)oc5cc(OS(=O)(=O)O)c(OC)cc5c24)C(O)Cc2c-3cc(OC)c(OC)c2OC)cc1O (stereo not given) [7-Hydroxy-13-(3-hydroxy-4-methoxy-phenyl)-2,9,10,11-tetramethoxy-7,8-dihydro-5-oxa-6b-aza-dibenzo[a,i]fluoren-6-one sodium sulfonate]	20 µM

The next lines start with the values.

IC50	SMILES
12 µM	COc1ccc(-c2c3n(c4c(=O)oc5cc(OS(=O)(=O)O)c(OC)cc5c24)CCc2cc(OC)c(OC)cc2-3)cc1O
20 µM	COc1ccc(-c2c3c4cc(OC)c(O)cc4oc(=O)c3n3ccc4c(OC)c(OC)c(OC)cc4c23)cc1O [3-Hydroxy-13-(3-hydroxy-4-methoxy-phenyl)-2,9,10,11-tetramethoxy-5-oxa-6b-aza-dibenzo[a,i]fluoren-6-one]
18 µM	COc1ccc(-c2c3n(c4c(=O)oc5cc(O)c(OC)cc5c24)CCc2c-3cc(OC)c(OC)c2OC)cc1O [3-Hydroxy-13-(3-hydroxy-4-methoxy-phenyl)-2,9,10,11-tetramethoxy-7,8-dihydro-5-oxa-6b-aza-dibenzo[a,i]fluoren-6-one]
